Data on 17 compounds can be found in patent US20180186742A1, “PICOLINAMIDES AS FUNGICIDES” (Dow AgroSciences LLC, priority 2017, published 2018).

Read-outs that look alike come from different tables or passages of the source.

What all share (type): in vivo
Experiment [1] concerns Zymoseptoria tritici. Briefly: Leaf blotch of wheat (SEPTTR), disease control on wheat seedlings. Conditions: low volume application at 121.5 g/H. In short, it runs like this: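 Z. tritici spores were inoculated onto wheat seedlings (Yuma, first leaf emerged) either before or after treatment. Treatment was an automated spray to run-off of acetone/Triton X-100 water solutions, or a track spray of EC formulations with 0.1% Trycol 5941. Plants were held in dew chambers at 20 °C and then a greenhouse at 20 °C. First-leaf severity (0–100%) was converted to percent control against untreated plants.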

The test system of experiment [2] is Puccinia triticina. The experiment is described as follows: Wheat brown rust (PUCCRT), disease control on wheat seedlings. As to conditions: low volume application at 121.5 g/H. In short, it runs like this: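 Compounds in acetone, diluted with nine volumes of water containing 110 ppm Triton X-100, sprayed to run-off on first-leaf Yuma wheat seedlings; track-spray tests used EC formulations with 0.1% Trycol 5941. Puccinia triticina spores applied before or after treatment. Overnight dark dew room at 22° C, 100% humidity, then greenhouse at 24° C.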

For experiment [3], the system named is Phakopsora pachyrhizi. The experiment is described as follows: Asian soybean rust (PHAKPA), disease control on soybean seedlings. Conditions: High volume application at 25 ppm. In short, it runs like this: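 Two-week-old Williams 82 soybean seedlings were sprayed to run-off with compound in acetone/water (1:9) containing 0.011% Tween 20. Inoculation was 3 days before (curative) or 1 day after (protectant) treatment, followed by 24 h dark dew at 22 °C, 100% RH, then 23 °C; disease severity scored on sprayed leaves.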

The mark [4] stands for this setting: 24 h, 1 Day Protectant, read-out: SEPTTR disease control, 1DP, LV activity.
[5] abbreviates: 72 h, 3 Day Curative, read-out: SEPTTR disease control, 3DC, LV activity.
Setting [6] is: 24 h, 1 Day Protectant, read-out: PUCCRT disease control, 1DP, LV activity.
The mark [7] stands for this setting: 72 h, 3 Day Curative, read-out: PUCCRT disease control, 3DC, LV activity.
The mark [8] stands for this setting: 24 h, 1 Day Protectant, read-out: PHAKPA 1DP disease control rating.
Setting [9] is: 72 h, 3 Day Curative, read-out: PHAKPA 3DC disease control rating.
Where [10] appears, read: 24 h, 1 Day Protectant, wheat leaf blotch, read-out: SEPTTR 1DP disease control, LV activity.
[11] abbreviates: 72 h, 3 Day Curative, wheat leaf blotch, read-out: SEPTTR 3DC disease control, LV activity.
Where [12] appears, read: 24 h, 1 Day Protectant, wheat brown rust, read-out: PUCCRT 1DP disease control, LV activity.
[13] abbreviates: 72 h, 3 Day Curative, wheat brown rust, read-out: PUCCRT 3DC disease control, LV activity.

With `COc1ccnc(C(=O)N[C@@H](C)C(=O)O[C@@H](C)[C@H](c2ccccc2F)C(C)C)c1OC(C)=O` [Compound 360], the pest or weed control at 121.5 g/ha in experiment [1] (setting [4]) was less than 80%; in experiment [1] (setting [5]), greater than 80%; in experiment [2] (setting [6]), greater than 80%; in experiment [2] (setting [7]), greater than 80%. In addition, the pest or weed control at 25 ppm in experiment [3] (setting [8]) and in experiment [3] (setting [9]) was greater than 80% throughout.
For the compound `COc1ccnc(C(=O)N[C@@H](C)C(=O)O[C@@H](C)[C@H](c2cc(F)ccc2C)C(C)C)c1OC(C)=O` [Compound 361], the pest or weed control at 121.5 g/ha in experiment [1] (setting [4]) is less than 80%; in experiment [1] (setting [5]), less than 80%; in experiment [2] (setting [6]), greater than 80%; in experiment [2] (setting [7]), less than 80%. For the same compound, the pest or weed control at 25 ppm in experiment [3] (setting [8]) and in experiment [3] (setting [9]) was greater than 80% in each case.
For `COc1ccnc(C(=O)N[C@@H](C)C(=O)O[C@@H](C)[C@H](c2ccc(C)cc2C)C(C)C)c1OC(C)=O` [Compound 362], the pest or weed control at 121.5 g/ha in experiment [1] (setting [4]), in experiment [1] (setting [5]), in experiment [2] (setting [6]) and in experiment [2] (setting [7]) was greater than 80% throughout. For the same compound, the pest or weed control at 25 ppm in experiment [3] (setting [8]) and in experiment [3] (setting [9]) was greater than 80% in each case.
On to `COc1ccnc(C(=O)N[C@@H](C)C(=O)O[C@@H](C)[C@H](c2ccc(F)cc2F)C(C)C)c1OC(C)=O` [Compound 365], for which the pest or weed control at 121.5 g/ha in experiment [1] (setting [10]), in experiment [1] (setting [11]), in experiment [2] (setting [12]) and in experiment [2] (setting [13]) was greater than 80% throughout. Moreover, the pest or weed control at 25 ppm in experiment [3] (setting [8]) and in experiment [3] (setting [9]) was greater than 80% each time.
For `COc1ccnc(C(=O)N[C@@H](C)C(=O)O[C@@H](C)[C@H](c2ccc(C)cc2F)C(C)C)c1OC(C)=O` [Compound 366], the pest or weed control at 121.5 g/ha is less than 80% in experiment [1] (setting [10]), less than 80% in experiment [1] (setting [11]), greater than 80% in experiment [2] (setting [12]) and greater than 80% in experiment [2] (setting [13]). The pest or weed control at 25 ppm was greater than 80% in experiment [3] (setting [8]) and less than 80% in experiment [3] (setting [9]).
Consider `COc1ccnc(C(=O)N[C@@H](C)C(=O)O[C@@H](C)[C@H](c2ccc(Cl)cc2Cl)C(C)C)c1OC(C)=O` [Compound 367], for which the pest or weed control at 121.5 g/ha in experiment [1] (setting [10]) was greater than 80%; in experiment [1] (setting [11]), less than 80%; in experiment [2] (setting [12]) it was greater than 80%; in experiment [2] (setting [13]), greater than 80%. Also, the pest or weed control at 25 ppm in experiment [3] (setting [8]) and in experiment [3] (setting [9]) was greater than 80% in each case.
As to `COc1ccnc(C(=O)N[C@@H](C)C(=O)O[C@@H](C)[C@@H](c2ccc(F)cc2F)C(C)C)c1OC(C)=O` [Compound 368], the pest or weed control at 121.5 g/ha in experiment [1] (setting [10]) was less than 80%; in experiment [1] (setting [11]), less than 80%; in experiment [2] (setting [12]), less than 80%; in experiment [2] (setting [13]), less than 0%. For the same compound, the pest or weed control at 25 ppm in experiment [3] (setting [8]) and in experiment [3] (setting [9]) was less than 80% in each case.
`COc1ccnc(C(=O)N[C@@H](C)C(=O)O[C@@H](C)[C@@H](c2ccc(C)cc2F)C(C)C)c1OC(C)=O` [Compound 369]: the pest or weed control at 121.5 g/ha in experiment [1] (setting [10]) was less than 80%; in experiment [1] (setting [11]), less than 80%; in experiment [2] (setting [12]), greater than 80%; in experiment [2] (setting [13]), less than 80%. In addition, the pest or weed control at 25 ppm in experiment [3] (setting [8]) and in experiment [3] (setting [9]) was less than 80% each time.
Regarding `COc1ccnc(C(=O)N[C@@H](C)C(=O)O[C@@H](C)[C@@H](c2ccc(Cl)cc2Cl)C(C)C)c1OC(C)=O` [Compound 370], the pest or weed control at 121.5 g/ha in experiment [1] (setting [10]) is less than 80%; in experiment [1] (setting [11]) it was less than 80%; in experiment [2] (setting [12]), less than 80%; in experiment [2] (setting [13]), less than 0%. The pest or weed control at 25 ppm in experiment [3] (setting [8]) and in experiment [3] (setting [9]) was less than 80% throughout.
For the compound `COc1ccnc(C(=O)N[C@@H](C)C(=O)O[C@@H](C)[C@H](c2ccccc2OC(C)C)C(C)C)c1OC(C)=O` [Compound 376], the pest or weed control at 121.5 g/ha was less than 80% in experiment [1] (setting [10]), less than 80% in experiment [1] (setting [11]), greater than 80% in experiment [2] (setting [12]) and less than 80% in experiment [2] (setting [13]). In addition, the pest or weed control at 25 ppm in experiment [3] (setting [8]) was greater than 80%; in experiment [3] (setting [9]) it was less than 80%.
On to `COc1ccnc(C(=O)N[C@@H](C)C(=O)O[C@@H](C)[C@H](c2ccc(OC(C)C)cc2)C(C)C)c1OC(C)=O` [Compound 377], for which the pest or weed control at 121.5 g/ha was less than 80% in experiment [1] (setting [10]), less than 80% in experiment [1] (setting [11]), greater than 80% in experiment [2] (setting [12]) and less than 80% in experiment [2] (setting [13]). The pest or weed control at 25 ppm in experiment [3] (setting [8]) and in experiment [3] (setting [9]) was less than 80% throughout.
As for `COc1ccnc(C(=O)N[C@@H](C)C(=O)O[C@@H](C)[C@H](c2ccc(OC(F)(F)F)cc2)C(C)C)c1OCOC(C)=O` [Compound 378], the pest or weed control at 121.5 g/ha in experiment [1] (setting [10]), in experiment [1] (setting [11]), in experiment [2] (setting [12]) and in experiment [2] (setting [13]) was greater than 80% in each case. For the same compound, the pest or weed control at 25 ppm in experiment [3] (setting [8]) and in experiment [3] (setting [9]) was less than 80% each time.
Regarding `COc1ccnc(C(=O)N[C@@H](C)C(=O)O[C@@H](C)[C@H](c2ccc(OC(C)C)cc2)C(C)C)c1OCOC(C)=O` [Compound 379], the pest or weed control at 121.5 g/ha in experiment [1] (setting [10]) is less than 80%; in experiment [1] (setting [11]), less than 80%; in experiment [2] (setting [12]), greater than 80%; in experiment [2] (setting [13]), less than 80%. The pest or weed control at 25 ppm in experiment [3] (setting [8]) and in experiment [3] (setting [9]) was less than 80% in each case.
With `COc1ccnc(C(=O)N[C@@H](C)C(=O)O[C@@H](C)[C@H](c2ccc3c(c2)OCO3)C(C)C)c1OC(C)=O` [Compound 380], the pest or weed control at 121.5 g/ha was less than 80% in experiment [1] (setting [10]), less than 80% in experiment [1] (setting [11]), greater than 80% in experiment [2] (setting [12]) and greater than 80% in experiment [2] (setting [13]). The pest or weed control at 25 ppm in experiment [3] (setting [8]) and in experiment [3] (setting [9]) was less than 80% in each case.
In the case of `COc1ccnc(C(=O)N[C@@H](C)C(=O)O[C@@H](C)[C@H](c2ccc(OC(F)(F)F)cc2)C(C)C)c1OC(C)=O` [Compound 381], the pest or weed control at 121.5 g/ha is greater than 80% in experiment [1] (setting [10]), greater than 80% in experiment [1] (setting [11]), greater than 80% in experiment [2] (setting [12]) and less than 80% in experiment [2] (setting [13]). For the same compound, the pest or weed control at 25 ppm in experiment [3] (setting [8]) and in experiment [3] (setting [9]) was less than 80% each time.
As for `COc1ccc([C@H](C(C)C)[C@H](C)OC(=O)[C@H](C)NC(=O)c2nccc(OC)c2OCOC(C)=O)cc1` [Compound 382], the pest or weed control at 121.5 g/ha is less than 80% in experiment [1] (setting [10]), greater than 80% in experiment [1] (setting [11]), greater than 80% in experiment [2] (setting [12]) and greater than 80% in experiment [2] (setting [13]). The pest or weed control at 25 ppm in experiment [3] (setting [8]) was greater than 80%; in experiment [3] (setting [9]), less than 80%.
For the compound `COc1ccc([C@H](C(C)C)[C@H](C)OC(=O)[C@H](C)NC(=O)c2nccc(OC)c2OC(C)=O)cc1` [Compound 383], the pest or weed control at 121.5 g/ha in experiment [1] (setting [10]) is less than 80%; in experiment [1] (setting [11]), less than 80%; in experiment [2] (setting [12]) it was greater than 80%; in experiment [2] (setting [13]), less than 80%. Further, the pest or weed control at 25 ppm in experiment [3] (setting [8]) is greater than 80%; in experiment [3] (setting [9]), less than 80%.
